What was measured:
[1] = test system: Human promyelocytic leukemia (HL60) cells; assay: HL-60 differentiation (nitro blue tetrazolium reduction); type: cell-based; conditions: four days after treatment
Description: The study drugs were dissolved in ethanol and the concentrations determined using UV spectrophotometry. Serial dilutions were prepared so that a range of drug concentrations could be tested without changing the final concentration of ethanol (≦0.2%) present in the cell cultures.
Human promyelocytic leukemia (HL60) cells were grown in RPMI-1640 medium containing 10% fetal bovine serum. The cells were incubated at 37° C. in the presence of 5% CO2.
HL60 cells were plated at 1.2×10^5 cells/ml. Eighteen hours after plating, cells in duplicate were treated with drug. Four days later, the cells were harvested and a nitro blue tetrazolium reduction assay was performed (Collins et al., 1979; J. Exp. Med. 149:969-974). The percentage of differentiated cells was determined by counting a total of 200 cells and recording the number that contained intracellular black-blue formazan deposits. Verification of differentiation to monocytic cells was determined by measuring phagocytic activity (data not shown).

[2] = test system: 24-hydroxylase (24Ohase) gene promoter in ROS 17/2.8 (bone) cells; assay: In vitro transcription assay (24-hydroxylase promoter luciferase reporter); type: cell-based; conditions: ROS 17/2.8 cells, 24Ohase-luciferase, sixteen hours after dosing; read-out: EC50, transcriptional activity in bone cells
Description: In Vitro Transcription Assay
Transcription activity was measured in ROS 17/2.8 (bone) cells that were stably transfected with a 24-hydroxylase (24Ohase) gene promoter upstream of a luciferase reporter gene (Arbour et al., 1998). Cells were given a range of doses. Sixteen hours after dosing the cells were harvested and luciferase activities were measured using a luminometer. • RLU=relative luciferase units. Intestinal Calcium Transport and Bone Calcium Mobilization

[3] = biological target: T1, full-length recombinant rat vitamin D receptor (Rattus norvegicus, UniProt P13053); assay: Vitamin D receptor binding, competition with [3H]-1,25(OH)2D3; conditions: full-length recombinant rat VDR; 1 nM radioligand
T1 construct: Full-length recombinant rat receptor was expressed in E. coli BL21 (DE3) Codon Plus RIL cells; histidine tag (C); made in house; host or cells: E. coli BL21 (DE3) Codon Plus RIL
T1 sequence (P13053 1-423): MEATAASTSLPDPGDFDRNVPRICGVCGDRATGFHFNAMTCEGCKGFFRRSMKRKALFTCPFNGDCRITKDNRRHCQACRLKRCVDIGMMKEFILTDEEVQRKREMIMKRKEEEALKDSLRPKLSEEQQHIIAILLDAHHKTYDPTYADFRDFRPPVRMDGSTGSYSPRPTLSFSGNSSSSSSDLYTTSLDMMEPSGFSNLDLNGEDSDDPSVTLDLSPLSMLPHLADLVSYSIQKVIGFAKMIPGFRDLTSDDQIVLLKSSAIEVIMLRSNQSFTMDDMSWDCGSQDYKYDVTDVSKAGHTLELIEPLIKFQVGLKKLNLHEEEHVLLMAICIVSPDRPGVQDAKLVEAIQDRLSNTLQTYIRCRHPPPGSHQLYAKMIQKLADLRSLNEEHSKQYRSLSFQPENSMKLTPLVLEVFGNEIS
Source text: Vitamin D Receptor Binding
Full-length recombinant rat receptor was expressed in E. coli BL21 (DE3) Codon Plus RIL cells and purified to homogeneity using two different column chromatography systems. The first system was a nickel affinity resin that utilizes the C-terminal histidine tag on this protein. The protein that was eluted from this resin was further purified using ion exchange chromatography (S-Sepharose Fast Flow). Aliquots of the purified protein were quick frozen in liquid nitrogen and stored at −80° C. until use. For use in binding assays, the protein was diluted in TEDK50 (50 mM Tris, 1.5 mM EDTA, pH7.4, 5 mM DTT, 150 mM KCl) with 0.1% Chaps detergent. The receptor protein and ligand concentration were optimized such that no more than 20% of the added radiolabeled ligand was bound to the receptor.
Radiolabeled and unlabeled ligands were added to 100 mcl of the diluted protein at a final ethanol concentration of ≦10%, mixed and incubated overnight on ice to reach binding equilibrium. The following day, 100 mcl of hydroxylapatite slurry (50%) was added to each tube and mixed at 10-minute intervals for 30 minutes. The hydroxylapaptite was collected by centrifugation and then washed three times with Tris-EDTA buffer (50 mM Tris, 1.5 mM EDTA, pH 7.4) containing 0.5% Titron X-100. […] Total binding was determined from the tubes containing only radiolabeled ligand.

[4] = Bone calcium mobilization (serum calcium) in vitamin D-deficient rats; type: in vivo, Sprague-Dawley rats
Description: Male, weanling Sprague-Dawley rats were placed on Diet 11 (0.47% Ca) diet+AEK for one week followed by Diet 11 (0.02% Ca)+AEK for 3 weeks. The rats were then switched to a diet containing 0.47% Ca for one week followed by two weeks on a diet containing 0.02% Ca. Dose administration began during the last week on 0.02% calcium diet. Four consecutive ip doses were given approximately 24 hours apart. Twenty-four hours after the last dose, blood was collected from the severed neck and the concentration of serum calcium determined as a measure of bone calcium mobilization. The first 10 cm of the intestine was also collected for intestinal calcium transport analysis using the everted gut sac method.
Calcium mobilization from bone in vitamin D-deficient animals.

[5] = low calcium diet (0.02%), four consecutive ip doses, overall / all dosages

Compound	EC50 [1] [nM]	EC50 [2] [nM]	Ki [3] [nM]	calcium mobilization from bone (serum calcium) [4, 5]	calcium mobilization from bone (serum calcium) ([4]; 0.02% Ca diet, 780 pmol/day for 4 consecutive days)	calcium mobilization from bone (serum calcium) ([4]; 0.02% Ca diet, 2340 pmol/day)	calcium mobilization from bone (serum calcium) ([4]; 0.02% Ca diet, 7020 pmol/day)
CCCCC(C)C1CCC2C(=CC=C3CC(O)C(C)C(O)C3)CCCC21C (single isomer, unassigned) [N-16]	100	100	10	–	–	–	–
C=C1/C(=C\C=C2/CCC[C@]3(C)[C@@H]([C@H](C)CCCC(C)(C)O)CC[C@@H]23)C[C@@H](O)C[C@@H]1O [1,25(OH)2D3, 1α,25-dihydroxyvitamin D3, reference compound]	2.9	–	–	increased serum calcium levels at all dosages	–	–	–
CCCCC(C)C1CCC2C(=CC=C3CC(O)C(C)C(O)C3)CCCC21C (single isomer, unassigned) [C-19]	8.2	10	0.22	little, if any, activity in mobilizing calcium from bone	did not result in mobilization of bone calcium	without any substantial effect	without any substantial effect
